pIC50: −log10 of the molar value. ≈ marks a conversion by molar mass, not a printed value.
What was measured:
[1] = Inhibition of Cryptosporidium parvum recombinant Galactose/N-acetylgalactosamine-specific lectin binding to Caco2A cells; assay type: cell-based; conditions: caco-2
[2] = tested on: Cryptosporidium parvum; test: Anticryptosporidial activity against Cryptosporidium parvum GCH1 assessed as inhibition of rabbit erythrocytes hemagglutinination; assay type: functional
[3] = tested on: Cryptosporidium hominis; test: Anticryptosporidial activity against Cryptosporidium hominis TU502 assessed as inhibition of rabbit erythrocytes hemagglutinination; assay type: functional
[4] = tested on: Cryptosporidium parvum; test: Anticryptosporidial activity against Cryptosporidium parvum GCH1 assessed as inhibition of rabbit erythrocytes hemagglutinination relative to galactose; assay type: functional
[5] = tested on: Cryptosporidium hominis; test: Anticryptosporidial activity against Cryptosporidium hominis TU502 assessed as inhibition of rabbit erythrocytes hemagglutinination relative to galactose; assay type: functional

pIC50 [1]	MIC [2]	MIC [3]	SMILES	Activity [4]	Activity [5]
< 0.30			CO[C@H]1O[C@H](CO)[C@@H](O)[C@H](O)[C@H]1O		
1.30			O=[N+]([O-])c1ccc(O[C@@H]2O[C@H](CO)[C@H](O)[C@H](O)[C@H]2O)cc1		
2.46			CC(=O)N[C@H]1C(O)O[C@H](CO)[C@H](O)[C@@H]1O[C@@H]1O[C@H](CO)[C@H](O)[C@H](O)[C@H]1O (stereo partly drawn)		
2.19	3.1 mM (≈ 686 µg/mL)	3.1 mM (≈ 686 µg/mL)	CC(=O)N[C@H]1C(O)O[C@H](CO)[C@H](O)[C@@H]1O (stereo partly drawn)	2	2
2.82			CC(=O)N[C@@H]1[C@@H](O[C@@H]2O[C@H](CO)[C@H](O)[C@H](O)[C@H]2O)[C@H](O)[C@@H](CO)O[C@H]1O		
2.60			OC[C@H]1O[C@H](O[C@@H]2[C@H](O)[C@@H](O)C(O)O[C@@H]2CO)[C@H](O)[C@@H](O)[C@H]1O (stereo partly drawn)		
2.30			OC[C@H]1O[C@H](O[C@H]2[C@H](O)[C@@H](O)[C@H](O)O[C@@H]2CO)[C@H](O)[C@@H](O)[C@H]1O		
1.60			O=[N+]([O-])c1ccc(O[C@H]2O[C@H](CO)[C@H](O)[C@H](O)[C@H]2O)cc1		
3.30			CC(=O)N[C@@H]1[C@@H](O)[C@H](O)[C@@H](CO[C@@H]2O[C@H](CO)[C@H](O)[C@H](O)[C@H]2O)O[C@H]1O		
< 0.30	50 mM (≈ 9010 µg/mL)	> 100 mM	OC[C@H]1OC(O)[C@@H](O)[C@@H](O)[C@@H]1O (stereo partly drawn) [D-MANNOSE]	0.124	0.062
< 0.30	100 mM (≈ 18000 µg/mL)	> 100 mM	OC[C@H]1O[C@@H](O)[C@H](O)[C@@H](O)[C@@H]1O [DEXTROSE]	0.062	0.062
1.90	6.2 mM (≈ 1120 µg/mL)	6.2 mM (≈ 1120 µg/mL)	O=C[C@H](O)[C@@H](O)[C@@H](O)[C@H](O)CO [GALACTOSE]	1	1
< 0.30	> 100 mM	> 100 mM	C[C@H](O)[C@@H](O)[C@@H](O)[C@H](O)C=O [L-FUCOSE]	<0.062	<0.062
< 0.30	50 mM (≈ 11100 µg/mL)	> 100 mM	CC(=O)N[C@@H]1[C@@H](O)[C@H](O)[C@@H](CO)O[C@H]1O [N-ACETYLGLUCOSAMINE]	0.124	0.062
